From patent publication US20210379095A1, “Methods and Combination Therapy to Treat Biliary Tract Cancer” (ARRAY BIOPHARMA INC., priority 2018, published 2021)

Legend:
[1] = tested on: thymidylate synthase (TS); assay: Western blot of protein expression in BTC cells; format: cell-based; conditions: 48 hours
Description: The effect of binimetinib, 5-fluorouracil (5-FU), or combination of these drugs on cell viability was evaluated using eight BTC cell lines (SNU245, SNU308, SNU478, SNU869, SNU1079, SNU1196, TFK1, and HuCCT1). As capecitabine is converted to 5-FU in vivo, 5-FU was used as an […] of oral administration of capecitabine in this preclinical study in cell lines. […] Subsequently, cell viability was measured at 540 nm with a Multiskan GO microplate reader using a commercially available MTT assay, according to the manufacturer's directions. The Chou-Talalay method was used to assess a combination effect. […] Actin was included as a loading control.

[2] = tested on: programmed death-ligand 1 (PD-L1); assay: Western blot of protein expression in BTC cells; format: cell-based; conditions: 48 hours
Description: (§1) The effect of binimetinib, 5-fluorouracil (5-FU), or combination of these drugs on cell viability was evaluated using eight BTC cell lines (SNU245, SNU308, SNU478, SNU869, SNU1079, SNU1196, TFK1, and HuCCT1). As capecitabine is converted to 5-FU in vivo, 5-FU was used as an […] of oral administration of capecitabine in this preclinical study in cell lines. In brief, confluent monolayers, which had been grown in 96 well plates, were exposed to drugs for 72 hours. Subsequently, cell viability was measured at 540 nm with a Multiskan GO microplate reader using a commercially available MTT assay, according to the manufacturer's directions. The Chou-Talalay method was used to assess a combination effect. Cells were also treated with drugs for 48 hours and the expression of thymidylate synthase (TS), programmed death-ligand 1 (PD-L1), and β-actin was determined using western blot analysis according to a published protocol. Actin was included as a loading control.

[3] = tested on: advanced or metastatic BTC; conditions: binimetinib monotherapy, advanced or metastatic BTC patients; cited from earlier work
[4] = tested on: BTC cell lines (SNU245, SNU308, SNU478, SNU869, SNU1079, SNU1196, TFK1, and HuCCT1); assay: MTT cell viability assay; format: cell-based; conditions: eight BTC cell lines, 72 hours exposure
Description: as §1

| Compound | thymidylate synthase (TS) expression [1] | PD-L1 expression [2] | DCR [3] [%] | ORR [3] [%] | OS [3] [months] | PFS [3] [months] | cell viability [4] |
| --- | --- | --- | --- | --- | --- | --- | --- |
| O=c1[nH]cc(F)c(=O)[nH]1 [5-FU, 5-fluorouracil] | upregulated | induced PD-L1 expression |  |  |  |  |  |
| Cn1cnc2c(F)c(Nc3ccc(Br)cc3F)c(C(=O)NOCCO)cc21 [binimetinib, 6-(4-bromo-2-fluorophenylamino)-7-fluoro-3-methyl-3H-benzoimidazole-5-carboxylic acid (2-hydroxyethoxy)-amide] | downregulated |  | 51 | 8 | 4.8 | 2.1 | significant decreases in cell viability |
